Reference: patent US20040102454A1, “Phenylahistin and the phenylahistin analogs, a new class of anti-tumor compounds” (priority 1998, published 2004)

Assays:
Experiment in all cases: HCC panel assay, sulforhodamine B
Assay type in all cases: cell-based
WiDr = details: Colon, (−)-PLH content 24.1%
Experimental: (§1) The antitumor activity of PLH was evaluated by the Human Cancer Cell Line Panel (HCC panel) assay, see Yamori T., Jap. J Cancer Chemother., (1997), 24, 129-35. This HCC panel consists of 38 tumor cell lines including 7 lung cancer, 6 stomach, 6 colon, 5 ovary, 6 central nerve system, 5 breast, 2 kidney and 1 melanoma cell lines. Each tumor cell was seeded in 96-well tissue culture plates and incubated overnight. Various concentrations (5 doses; final 10^−4, 10^−5, 10^−6, 10^−7 and 10^−8 M) of PLH were added, and the cells were incubated for 48 hours. […] All mice were obtained from Japan SLC (Shizuoka, Japan), P388 leukemia cells were obtained from Dainippon Pharmaceuticals Inc. (Osaka, Japan), Lewis Lung Carcinoma from Riken Cell Bank (Tsukuba, Japan), and Colon 26 cells from the National Cancer Center, Japan (Tokyo, Japan).

HCT-116 = details: HCT-116, Colon, (−)-PLH content 24.1%
Experimental: as §1

RXF-6311 = details: RXF-6311, Renal, (−)-PLH content 24.1%
Experimental: as §1

U251 = details: U251, CNS, (−)-PLH content 24.1%
Experimental: as §1

SNB-78 = details: SNB-78, CNS, (−)-PLH content 24.1%
Experimental: as §1

SF-268 = details: SF-268, CNS, (−)-PLH content 24.1%
Experimental: as §1

MCF-7 = details: MCF-7, Breast, (−)-PLH content 24.1%
Experimental: as §1

St-4 = details: St-4, Stomach, (−)-PLH content 24.1%
Experimental: as §1

KM-12 = details: KM-12, Colon, (−)-PLH content 24.1%
Experimental: as §1

MKN74 = details: MKN74, Stomach, (−)-PLH content 24.1%
Experimental: as §1

OVCAR-3 = tested on: OVCAR-3
Experimental: as §1

BSY-1 = details: BSY-1, Breast, (−)-PLH content 24.1%
Experimental: as §1

DMS273 = details: DMS273, Lung, (−)-PLH content 24.1%
Experimental: as §1

NCI-H226 = details: NCI-H226, Lung, (−)-PLH content 24.1%
Experimental: as §1

DMS114 = details: DMS114, Lung, (−)-PLH content 24.1%
Experimental: as §1

SF-539 = details: SF-539, CNS, (−)-PLH content 24.1%
Experimental: as §1

HBC-5 = details: HBC-5, Breast, (−)-PLH content 24.1%
Experimental: as §1

MKN1 = details: MKN1, Stomach, (−)-PLH content 24.1%
Experimental: as §1

SF-295 = details: SF-295, CNS, (−)-PLH content 24.1%
Experimental: as §1

MKN45 = details: MKN45, Stomach, (−)-PLH content 24.1%
Experimental: as §1

HT-29 = details: HT-29, Colon, (−)-PLH content 24.1%
Experimental: as §1

[1] = Homo sapiens, read-out: GL50 (the source's name)
[2] = Homo sapiens, read-out: LC50 (the source's name)

C=CC(C)(C)c1[nH]cnc1/C=C1\NC(=O)[C@H](Cc2ccccc2)NC1=O (racemic) [PLH, phenylahistin]
TGI (WiDr): 0.79 µM | IC50 (WiDr; [1]): 0.27 µM | CC50 (WiDr; [2]): > 100 µM | TGI (HCT-116): >100 µM | IC50 (HCT-116; [1]): 0.48 µM | CC50 (HCT-116; [2]): > 100 µM | IC50 (RXF-6311; [1]): 1.9 µM | CC50 (RXF-6311; [2]): > 100 µM | TGI (RXF-6311): >100 µM | IC50 (U251; Homo sapiens, U-251, read-out: GL50 (the source's name)): 0.44 µM | CC50 (U251; Homo sapiens, U-251, read-out: LC50 (the source's name)): > 100 µM | TGI (U251): 10 µM | IC50 (SNB-78; [1]): 1.3 µM | CC50 (SNB-78; [2]): > 100 µM | TGI (SNB-78): >100 µM | IC50 (SF-268; [1]): 0.41 µM | CC50 (SF-268; [2]): > 100 µM | TGI (SF-268): >100 µM | IC50 (MCF-7; Homo sapiens, MCF7, read-out: GL50 (the source's name)): 0.47 µM | CC50 (MCF-7; Homo sapiens, MCF7, read-out: LC50 (the source's name)): > 100 µM | TGI (MCF-7): >100 µM | IC50 (St-4; [1]): 40 µM | CC50 (St-4; [2]): > 100 µM | TGI (St-4): >100 µM | IC50 (KM-12; Homo sapiens, KM12, read-out: GL50 (the source's name)): 0.38 µM | CC50 (KM-12; Homo sapiens, KM12, read-out: LC50 (the source's name)): > 100 µM | TGI (KM-12): >100 µM | IC50 (MKN74; Homo sapiens, MKN-74, read-out: GL50 (the source's name)): 0.48 µM | CC50 (MKN74; Homo sapiens, MKN-74, read-out: LC50 (the source's name)): > 100 µM | TGI (MKN74): >100 µM | CC50 (OVCAR-3; Homo sapiens, OVCAR-3, read-out: LC50): > 100 µM | IC50 (OVCAR-3; Homo sapiens, OVCAR-3, Ovary, (−)-PLH content 24.1%, read-out: GL50 (the source's name)): 3 µM | TGI (OVCAR-3; OVCAR-3, Ovary, (−)-PLH content 24.1%): >100 µM | TGI (BSY-1): 0.67 µM | IC50 (BSY-1; [1]): 0.23 µM | CC50 (BSY-1; [2]): > 100 µM | TGI (DMS273): >100 µM | IC50 (DMS273; Homo sapiens, DMS-273, read-out: GL50 (the source's name)): 0.29 µM | CC50 (DMS273; Homo sapiens, DMS-273, read-out: LC50 (the source's name)): > 100 µM | IC50 (NCI-H226; [1]): 0.41 µM | CC50 (NCI-H226; [2]): > 100 µM | TGI (NCI-H226): 31 µM | TGI (DMS114): 2.4 µM | IC50 (DMS114; Homo sapiens, DMS-114, read-out: GL50 (the source's name)): 0.33 µM | CC50 (DMS114; Homo sapiens, DMS-114, read-out: LC50 (the source's name)): > 100 µM | IC50 (SF-539; [1]): 0.23 µM | CC50 (SF-539; [2]): 11 µM | TGI (SF-539): 0.6 µM | TGI (HBC-5): >100 µM | IC50 (HBC-5; Homo sapiens, HBC5, read-out: GL50 (the source's name)): 0.6 µM | CC50 (HBC-5; Homo sapiens, HBC5, read-out: LC50 (the source's name)): > 100 µM | IC50 (MKN1; Homo sapiens, MKN-1, read-out: GL50 (the source's name)): 0.4 µM | CC50 (MKN1; Homo sapiens, MKN-1, read-out: LC50 (the source's name)): > 100 µM | TGI (MKN1): 21 µM | IC50 (SF-295; [1]): 0.32 µM | CC50 (SF-295; [2]): > 100 µM | TGI (SF-295): 2.4 µM | IC50 (MKN45; Homo sapiens, MKN-45, read-out: GL50 (the source's name)): 1.5 µM | CC50 (MKN45; Homo sapiens, MKN-45, read-out: LC50 (the source's name)): > 100 µM | TGI (MKN45): >100 µM | TGI (HT-29): >100 µM | IC50 (HT-29; [1]): 0.4 µM | CC50 (HT-29; [2]): > 100 µM
